From the NIST ThermoML archive (doi:10.1021/je900812v)

Legend:
[1] = Liquid; for mass density: 298.15 K, 101.33 kPa, Pycnometric method
[2] = refractive index (Na D-line) (dimensionless); settings: 298.15 K; 101.33 kPa; Liquid; Standard Abbe refractometry
[3] = Boiling temperature at pressure P; settings: 101.3 kPa; Liquid; Ebulliometric method (Recirculating still)

CC(C)CCO [3-methylbutan-1-ol]
Settings	mass density [kg/m3]
[1]	807.6

[1]
Settings	vapor or sublimation pressure [kPa]
336.35 K	5.27
346.9 K	9.25
354.2 K	12.96
354.3 K	13.24
356.85 K	14.83
359.75 K	17.09
360.65 K	17.61
363.55 K	20.13
364.05 K	20.81
365.45 K	21.98
368.3 K	25.18
369.5 K	26.24
371.5 K	28.64
380.65 K	41.65
381.65 K	43.64
389.6 K	59.58
391.35 K	64.3
392.65 K	66.58
395.55 K	74.19
396.9 K	77.47
398.25 K	81.46
403.05 K	96.21
403.75 K	99.99
404.55 K	101.33
405.15 K	103.46
408.05 K	114.26
410.95 K	125.72
413.05 K	133.86

CC(=O)OCCC(C)C [3-methylbutyl ethanoate]
Settings	mass density [kg/m3]	refractive index
[1]	866.4	–
[2]	–	1.39893

[1]
Settings	vapor or sublimation pressure [kPa]
368.15 K	22.4
369.35 K	23.4
370.65 K	24.6
371.85 K	25.7
372.45 K	26.3
380.65 K	35.3
381.75 K	36.7
387 K	43.9
387.9 K	45.2
390.95 K	50
392.75 K	52.9
394.25 K	55.5
395.65 K	58
398.65 K	63.7
401.85 K	70.1
403.35 K	73.3
407.15 K	81.9
409.55 K	87.8
410.95 K	91.3
412.85 K	96.3
414.15 K	99.8
414.85 K	101.7
415.35 K	103.1
416.45 K	106.2

CCCCCO [pentan-1-ol]
Settings	Boiling temperature at pressure P [°C]	mass density [kg/m3]	refractive index
[1]	–	811.2	–
[2]	–	–	1.4077
[3]	137.80	–	–

Settings	vapor or sublimation pressure [kPa]
[1], 410.95 K, Ebulliometric method (Recirculating still)	101.3

CCCCCOC(C)=O [pentyl ethanoate]
Settings	Boiling temperature at pressure P [°C]	mass density [kg/m3]	refractive index
[1]	–	872.3	–
[2]	–	–	1.4005
[3]	148.40	–	–

Settings	vapor or sublimation pressure [kPa]
[1], 421.55 K, Ebulliometric method (Recirculating still)	101.3
